Experimental data published in ChEMBL document CHEMBL5034037, “Synthesis, Characterization, and Preclinical Evaluation of a Small-Molecule Prostate-Specific Membrane Antigen-Targeted Monomethyl Auristatin E Conjugate” (J Med Chem, 2021).
Several values for one entry are separate records, joined by “and”; a condition that tells them apart may be missing. Equal values may be shown once. Activity calls are given as the source filed them. *1 amine or outer side, *2 acyl side, *3 side chain or, on linkers, in order; H or OH if unused. Where a SMILES comes first, the peptide text is derived from it. [ ]: non-standard residue; d: D form. The star is where a group is joined. GluureaLys(ε-3-ClBenzyl) = O=C(O)CC[C@H](NC(=O)N[C@@H](CCCCN(Cc1cccc(Cl)c1)*)C(=O)O)C(=O)O; Dolaproine = CO[C@@H]([C@@H]1CCCN1)[C@@H](C)C(=O)O; Dil = CC[C@H](C)[C@H](NC)[C@@H](CC(=O)O)OC; X1 = O=C(CCCc1cn(CCCN[*:1])nn1)[*:2]; PABC = O=C(OCc1ccc(N[*:1])cc1)[*:2]; X2 = C[C@@H](N*)[C@@H](O)c1ccccc1; Cit = NC(=O)NCCC[C@H](N)C(=O)O; Suc = O=C(CCC(=O)[*:2])[*:1]; NMeV = CN[C@H](C(=O)O)C(C)C; Ahx = NCCCCCC(=O)O

Key:
[1] = Acute toxicity in iv dosed ICR mouse assessed as median mortality dose; assay type: organism-based; details: in vivo
[2] = Toxicity in rabbit assessed as morphological changes in mucosa of trachea at 81 to 122 microg/kg, iv; assay type: tissue-based, Oryctolagus cuniculus; details: in vivo, dose 81-122 µg/kg
[3] = Toxicity in rabbit assessed as change in body weight at 0.3 mg/kg, iv measured after 20 days; assay type: organism-based, Oryctolagus cuniculus; details: in vivo, 480 h, time 20 day
Cytochrome P450 2C9 = Cytochrome P450 2C9 (Homo sapiens, UniProt P11712); experiment: Inhibition of CYP2C9 in human liver microsome using tolbutamide as substrate; assay type: ADME, microsomes
[4] = Toxicity in rat assessed as morphological changes in peritoneum at 150 to 225 microg/kg, iv; assay type: tissue-based; details: in vivo, dose 150-225 µg/kg
Salmonella typhimurium [5] = experiment: Mutagenecity in Salmonella typhimurium TA100 without metabolic activation system at 100 ug/ml by Ames test; assay type: toxicity, organism-based; details: salmonella enterica subsp. enterica serovar typhimurium; dose 100 µg/ml
Salmonella typhimurium [6] = experiment: Mutagenecity in Salmonella typhimurium TA98 in presence of metabolic activation system at 100 ug/ml by Ames test; assay type: toxicity, organism-based; details: salmonella enterica subsp. enterica serovar typhimurium; dose 100 µg/ml
[7] = Toxicity in rat assessed as morphological changes in heart at 150 to 225 microg/kg, iv; assay type: tissue-based; details: in vivo, dose 150-225 µg/kg
[8] = Toxicity in rat assessed as morphological changes in spleen at 150 to 225 microg/kg, iv; assay type: tissue-based; details: in vivo, dose 150-225 µg/kg
[9] = Toxicity in rat assessed as morphological changes in adrenal gland at 150 to 225 microg/kg, iv; assay type: tissue-based; details: in vivo, dose 150-225 µg/kg
[10] = Toxicity in rabbit assessed as traumatic vein injury at 81 to 122 microg/kg, iv; assay type: tissue-based, Oryctolagus cuniculus; details: in vivo, dose 81-122 µg/kg
Cytochrome P450 3A4 = Cytochrome P450 3A4 (Homo sapiens, UniProt P08684); experiment: Inhibition of CYP3A4 in human liver microsome using testosterone as substrate; assay type: ADME, microsomes
Cathepsin B = Cathepsin B (Homo sapiens, UniProt P07858); experiment: Stability of compound at pH 3.6 assessed as recombinant cathepsin B (unknown origin) mediated hydrolysis half life by HPLC-MS analysis; assay type: ADME
[11] = Toxicity in rabbit morphological change in tongue at 81 to 122 microg/kg, iv; assay type: tissue-based, Oryctolagus cuniculus; details: in vivo, dose 81-122 µg/kg
Salmonella typhimurium [12] = experiment: Mutagenecity in Salmonella typhimurium TA100 without metabolic activation system at 10000 ug/ml by Ames test; assay type: toxicity, organism-based; details: salmonella enterica subsp. enterica serovar typhimurium; dose 10000 µg/ml
[13] = Toxicity in rat assessed as morphological changes in cerebral membrane at 150 to 225 microg/kg, iv; details: in vivo, dose 150-225 µg/kg
[14] = Toxicity in rabbit assessed as morphological changes in thymus at 81 to 122 microg/kg, iv; assay type: tissue-based, Oryctolagus cuniculus; details: in vivo, dose 81-122 µg/kg
[15] = Acute toxicity in iv dosed Wistar rat assessed as maximum tolerated dose; assay type: organism-based; details: in vivo, read-out: MNTD
[16] = Toxicity in rabbit assessed as morphological changes in spleen at 81 to 122 microg/kg, iv; assay type: tissue-based, Oryctolagus cuniculus; details: in vivo, dose 81-122 µg/kg
[17] = Toxicity in rabbit assessed as hemorrhage at 81 to 122 microg/kg, iv; set-up: species or system Oryctolagus cuniculus; details: in vivo, dose 81-122 µg/kg
[18] = Initial plasma concentration in Wistar rat plasma at 1.5 mg/kg, iv; assay type: ADME, organism-based
[19] = Toxicity in rat assessed as morphological changes in capsule of the kidney at 150 to 225 microg/kg, iv; assay type: tissue-based; details: in vivo, dose 150-225 µg/kg
Salmonella typhimurium [20] = experiment: Mutagenecity in Salmonella typhimurium TA98 without metabolic activation system at 100 ug/ml by Ames test; assay type: toxicity, organism-based; details: salmonella enterica subsp. enterica serovar typhimurium; dose 100 µg/ml
[21] = Toxicity in rat assessed as morphological changes in gastric wall mucosa at 150 to 225 microg/kg, iv; details: in vivo, dose 150-225 µg/kg
Salmonella typhimurium [22] = experiment: Mutagenecity in Salmonella typhimurium TA100 in presence of metabolic activation system at 1 ug/ml by Ames test; assay type: toxicity, organism-based; details: salmonella enterica subsp. enterica serovar typhimurium; dose 1 µg/ml
[23] = Stability of compound at pH 5.6 assessed as recombinant cathepsin B mediated hydrolysis by measuring MMAE release by HPLC-MS analysis; assay type: physicochemical; details: buffer
[24] = Toxicity in mouse xenografted with human 22Rv1 cells assessed as early fell at 0.6 mg/kg, ip daily treated for 5 days after 18 days of tumor implantation measured upto 10 days; assay type: organism-based, CWR22R; details: in vivo, 120 h, time 5 day
[25] = Toxicity in rabbit assessed as morphological changes in mucosa of thyroid gland at 81 to 122 microg/kg, iv; assay type: tissue-based, Oryctolagus cuniculus; details: in vivo, dose 81-122 µg/kg
[26] = Antitumor activity against human 22Rv1 cells xenografted in mouse assessed as tumour growth inhibition at 0.3 mg/kg, ip daily treated for 5 days after 18 days of tumor implantation measured upto 15 days; assay type: functional, CWR22R; details: 22Rv1, ip, 120 h, time 5 day, read-out: TGI
Salmonella typhimurium [27] = experiment: Mutagenecity in Salmonella typhimurium TA100 without metabolic activation system at 1000 ug/ml by Ames test; assay type: toxicity, organism-based; details: salmonella enterica subsp. enterica serovar typhimurium; dose 1000 µg/ml
Salmonella typhimurium [28] = experiment: Mutagenecity in Salmonella typhimurium TA97 without metabolic activation system at 10000 ug/ml by Ames test; assay type: toxicity, organism-based; details: salmonella enterica subsp. enterica serovar typhimurium; dose 10000 µg/ml
CWR22R [29] = experiment: Cytotoxicity against human 22Rv1 cells expressing PMSA measured using MTT assay; assay type: functional
[30] = Toxicity in rabbit assessed as morphological changes in heart muscle at 81 to 122 microg/kg, iv; assay type: tissue-based, Oryctolagus cuniculus; details: in vivo, dose 81-122 µg/kg
CWR22R [31] = experiment: Induction of intracellular reactive oxygen species production in human 22Rv1 cells incubated for 1 hr measured at CC50 concentration by amperometric method; assay type: functional, cell-based
Salmonella typhimurium [32] = experiment: Mutagenecity in Salmonella typhimurium TA100 without metabolic activation system at 10 ug/ml by Ames test; assay type: toxicity, organism-based; details: salmonella enterica subsp. enterica serovar typhimurium; dose 10 µg/ml
Cytochrome P450 2C19 = Cytochrome P450 2C19 (Homo sapiens, UniProt P33261); experiment: Inhibition of CYP2C19 in human liver microsome using mephenytoin as substrate; assay type: ADME, microsomes
[33] = Mean residence time in rabbit at 0.81 mg/kg, iv; assay type: ADME, organism-based, Oryctolagus cuniculus; details: in vivo
[34] = Toxicity in rabbit assessed as morphological changes in brain gyrus at 81 to 122 microg/kg, iv; assay type: tissue-based, Oryctolagus cuniculus; details: in vivo, dose 81-122 µg/kg
[35] = Half life in rabbit at 0.81 mg/kg, iv; assay type: ADME, organism-based, Oryctolagus cuniculus; details: in vivo
[36] = Toxicity in mouse assessed as change in body weight at 0.3 mg/kg, iv measured after 20 days; assay type: organism-based; details: in vivo, 480 h, time 20 day
Salmonella typhimurium [37] = experiment: Mutagenecity in Salmonella typhimurium TA100 in presence of metabolic activation system at 1000 ug/ml by Ames test; assay type: toxicity, organism-based; details: salmonella enterica subsp. enterica serovar typhimurium; dose 1000 µg/ml
[38] = Toxicity in rabbit assessed as morphological changes in liver at 81 to 122 microg/kg, iv; assay type: tissue-based, Oryctolagus cuniculus; details: in vivo, dose 81-122 µg/kg
[39] = Toxicity in rabbit assessed as morphological changes in aortic intima at 81 to 122 microg/kg, iv; set-up: species or system Oryctolagus cuniculus; details: in vivo, dose 81-122 µg/kg
[40] = Acute toxicity in iv dosed ICR mouse assessed as maximum tolerated dose; assay type: organism-based; details: in vivo, read-out: MNTD
[41] = Toxicity in rabbit assessed as morphological changes in loops of colon at 81 to 122 microg/kg, iv; assay type: tissue-based, Oryctolagus cuniculus; details: in vivo, dose 81-122 µg/kg

Chain of Cytochrome P450 3A4 (P08684 whole entry): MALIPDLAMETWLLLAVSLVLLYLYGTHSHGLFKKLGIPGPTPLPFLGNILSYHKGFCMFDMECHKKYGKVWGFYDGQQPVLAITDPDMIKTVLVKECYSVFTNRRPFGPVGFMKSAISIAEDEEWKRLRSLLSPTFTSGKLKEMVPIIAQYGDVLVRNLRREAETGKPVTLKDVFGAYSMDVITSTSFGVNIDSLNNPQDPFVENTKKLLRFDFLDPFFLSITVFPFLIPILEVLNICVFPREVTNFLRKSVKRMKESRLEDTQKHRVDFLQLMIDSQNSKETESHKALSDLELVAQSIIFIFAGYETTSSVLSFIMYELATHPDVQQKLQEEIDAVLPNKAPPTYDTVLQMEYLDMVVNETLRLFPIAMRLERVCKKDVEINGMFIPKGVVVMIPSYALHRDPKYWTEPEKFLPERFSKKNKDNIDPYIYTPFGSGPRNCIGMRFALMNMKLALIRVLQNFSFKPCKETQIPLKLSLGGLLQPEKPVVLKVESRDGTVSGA
Chain of Cytochrome P450 2C9 (P11712 whole entry): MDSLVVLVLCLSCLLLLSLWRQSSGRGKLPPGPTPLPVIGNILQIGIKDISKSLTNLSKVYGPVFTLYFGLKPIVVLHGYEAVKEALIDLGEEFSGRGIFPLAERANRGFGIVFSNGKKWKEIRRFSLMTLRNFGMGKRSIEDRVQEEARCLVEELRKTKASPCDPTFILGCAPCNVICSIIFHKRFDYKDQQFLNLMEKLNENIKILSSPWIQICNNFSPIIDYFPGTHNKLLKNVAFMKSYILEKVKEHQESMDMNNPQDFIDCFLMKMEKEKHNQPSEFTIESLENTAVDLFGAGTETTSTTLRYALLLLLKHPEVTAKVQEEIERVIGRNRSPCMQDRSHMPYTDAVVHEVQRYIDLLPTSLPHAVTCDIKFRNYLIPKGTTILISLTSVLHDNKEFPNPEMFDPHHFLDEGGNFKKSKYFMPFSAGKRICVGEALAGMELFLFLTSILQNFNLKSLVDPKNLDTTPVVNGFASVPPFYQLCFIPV
Chain of Cytochrome P450 2C19 (P33261 whole entry): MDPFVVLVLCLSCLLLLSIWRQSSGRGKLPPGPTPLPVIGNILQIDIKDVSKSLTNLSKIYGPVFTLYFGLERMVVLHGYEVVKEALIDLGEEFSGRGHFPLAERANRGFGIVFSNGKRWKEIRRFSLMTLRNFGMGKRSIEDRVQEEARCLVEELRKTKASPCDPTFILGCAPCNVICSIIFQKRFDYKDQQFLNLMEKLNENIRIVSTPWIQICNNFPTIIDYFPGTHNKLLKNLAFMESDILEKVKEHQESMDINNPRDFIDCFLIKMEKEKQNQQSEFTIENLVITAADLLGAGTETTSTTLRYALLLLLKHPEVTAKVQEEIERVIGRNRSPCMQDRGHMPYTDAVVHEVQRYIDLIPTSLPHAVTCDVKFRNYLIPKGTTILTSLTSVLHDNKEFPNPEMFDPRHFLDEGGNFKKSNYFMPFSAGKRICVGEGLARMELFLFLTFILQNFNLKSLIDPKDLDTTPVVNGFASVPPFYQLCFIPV

CC[C@H](C)[C@@H]([C@@H](CC(=O)N1CCC[C@H]1[C@H](OC)[C@@H](C)C(=O)N[C@H](C)[C@@H](O)c1ccccc1)OC)N(C)C(=O)[C@@H](NC(=O)[C@H](C(C)C)N(C)C(=O)OCc1ccc(NC(=O)[C@H](CCCNC(N)=O)NC(=O)[C@@H](NC(=O)CCCc2cn(CCCNC(=O)[C@H](Cc3ccc(O)cc3)NC(=O)[C@H](Cc3ccccc3)NC(=O)CCC(=O)NCCCCCC(=O)N(CCCC[C@H](NC(=O)N[C@@H](CCC(=O)O)C(=O)O)C(=O)O)Cc3cccc(Cl)c3)nn2)C(C)C)cc1)C(C)C ({GluureaLys(ε-3-ClBenzyl)-Ahx-Suc}-FY[X1]V[Cit][PABC][NMeV]V[Dil][Dolaproine]-X2)
4 mg/kg: MTD [15]
4.6 h: half-life [35]
> 25 µM: IC50 (Cytochrome P450 2C9) | IC50 (Cytochrome P450 2C19)
11.2 µM: IC50 (Cytochrome P450 3A4)
Unstable: Stability [23]
3.4 h: MRT [33]
active: Activity (CWR22R [31])
31000 ng/mL: C0 [18]
0.417 h: half-life (Cathepsin B)
6.3 mg/kg and 2.7 µmol/kg: LD50 [1]
Toxic: Activity [10] | Activity [17] | Activity [24]
3 mg/kg: MTD [40]
0.029 µM: CC50 (CWR22R [29])
77.4%: inhibition in vivo at 0.3 mg/kg [26]
Non-Toxic: Activity [2] | Activity [3] | Activity [4] | Activity (Salmonella typhimurium [5]) | Activity (Salmonella typhimurium [6]) | Activity [7] | Activity [8] | Activity [9] | Activity [11] | Activity (Salmonella typhimurium [12]) | Activity [13] | Activity [14] | Activity [16] | Activity [19] | Activity (Salmonella typhimurium [20]) | Activity [21] | Activity (Salmonella typhimurium [22]) | Activity [25] | Activity (Salmonella typhimurium [27]) | Activity (Salmonella typhimurium [28]) | Activity [30] | Activity (Salmonella typhimurium [32]) | Activity [34] | Activity [36] | Activity (Salmonella typhimurium [37]) | Activity [38] | Activity [39] | Activity [41]
